Assay results as given in patent US10287269B2, “Pyrazolyl pyrimidinone compounds as PDE2 inhibitors” (Merck Sharp & Dohme Corp., priority 2015, dated 2019).
Read-outs that look alike come from different tables or passages of the source.

Target: T1, human PDE2A1 (Homo sapiens, UniProt O00408)
T1 construct: GST; purchased BPS Bioscience (San Diego, Calif.) 60020; host or cells: insect cells
Assay: PDE2 IMAP FP inhibition assay, human enzyme (PDE selectivity panel format)
Format: biochemical
Procedure: Selectivity for PDE2, as compared to other PDE families, was assessed using the IMAP® technology. Human PDE10A2 enzyme was prepared from cytosolic fractions of transiently transfected HEK cells. All other PDE's were GST Tag human enzyme expressed in insect cells and were obtained from BPS Bioscience (San Diego, Calif.): PDE1A (Cat#60010), human PDE2A1 (Cat#60020), PDE3A (Cat#60030), PDE4A1A (Cat#60040), PDE5A1 (Cat#60050), PDE6C (Cat#60060), PDE7A (Cat#60070), PDE8A1 (Cat#60080), PDE9A2 (Cat#60090), PDE11A4 (Cat#60110).
Assays for PDE 1 through 11 were performed in parallel at room temperature in 384-well microtiter plates with an incubation volume of 20.2 μL. Solutions of test compounds were prepared in DMSO and serially diluted with DMSO to yield 30 μL of each of ten solutions differing by 3-fold in concentration, at 32 serial dilutions per plate. […] A Labcyte POD 810 (Labcyte, Sunnyvale, Calif.) was used to dispense 200 nL from each well of the titration plate to make eleven copies of the assay plate for each titration, one copy for each PDE enzyme. A solution of each enzyme (dilution from aliquots, sufficient to produce 20% substrate conversion) and a separate solution of FAM-labeled cAMP or FAM-labeled cGMP from Molecular Devices (Sunnyvale, Calif., product # R7506 or cGMP#R7508), at a final concentration of 50 nM were made in the assay buffer (10 mM Tris HCl, pH 7.2, 10 mM MgCl2, 0.05% NaN3 0.01% Tween-20, and 1 mM DTT). Note that the substrate for PDE2 is 50 nM FAM cAMP containing 1000 nM of cGMP. The enzyme and the substrate were then added to the assay plates in two consecutive additions of 10 μL and then shaken to mix. The reaction was allowed to proceed at room temperature for 60 minutes. A binding solution was then made from the kit components, comprised of 80% Solution A, 20% Solution B and binding reagent at a volume of 1/600 the total binding solution. The enzymatic reaction was stopped by addition of 60 μL of the binding solution to each well of the assay plate. The plates were sealed and shaken for 10 seconds. The plates were incubated at room temperature for one hour, then the parallel and perpendicular fluorescence was measured using a Tecan Genios Pro plate reader (Tecan, Switzerland). The apparent inhibition constants for the compounds against all 11 PDE's was determined from the parallel and perpendicular fluorescent readings as described for PDE10 FP assay using the following apparent KM values for each enzyme and substrate combination: PDE1A (FAM cGMP) 70 nM, human PDE2A1 (FAM cAMP) 10,000 nM, PDE3A (FAM cAMP) 50 nM, PDE4A1A (FAM cAMP) 1500 nM, PDE5A1 (FAM cGMP) 400 nM, PDE6C (FAM cGMP) 700 nM, PDE7A (FAM cAMP) 150 nM, PDE8A1 (FAM cAMP) 50 nM, PDE9A2 (FAM cGMP) 60 nM, PDE10A2 (FAM cAMP) 150 nM, PDE11A4 (FAM cAMP) 1000 nM. The intrinsic PDE2 inhibitory activity of a compound which may be used in accordance with the present invention may be determined by these assays. […]

[1] = Lab A, read-out: Human PDE2 Ki (nM) Lab A
[2] = Lab B, read-out: Human PDE2 Ki (nM) Lab B

T1 sequence (O00408 1-920 isoform O00408-2): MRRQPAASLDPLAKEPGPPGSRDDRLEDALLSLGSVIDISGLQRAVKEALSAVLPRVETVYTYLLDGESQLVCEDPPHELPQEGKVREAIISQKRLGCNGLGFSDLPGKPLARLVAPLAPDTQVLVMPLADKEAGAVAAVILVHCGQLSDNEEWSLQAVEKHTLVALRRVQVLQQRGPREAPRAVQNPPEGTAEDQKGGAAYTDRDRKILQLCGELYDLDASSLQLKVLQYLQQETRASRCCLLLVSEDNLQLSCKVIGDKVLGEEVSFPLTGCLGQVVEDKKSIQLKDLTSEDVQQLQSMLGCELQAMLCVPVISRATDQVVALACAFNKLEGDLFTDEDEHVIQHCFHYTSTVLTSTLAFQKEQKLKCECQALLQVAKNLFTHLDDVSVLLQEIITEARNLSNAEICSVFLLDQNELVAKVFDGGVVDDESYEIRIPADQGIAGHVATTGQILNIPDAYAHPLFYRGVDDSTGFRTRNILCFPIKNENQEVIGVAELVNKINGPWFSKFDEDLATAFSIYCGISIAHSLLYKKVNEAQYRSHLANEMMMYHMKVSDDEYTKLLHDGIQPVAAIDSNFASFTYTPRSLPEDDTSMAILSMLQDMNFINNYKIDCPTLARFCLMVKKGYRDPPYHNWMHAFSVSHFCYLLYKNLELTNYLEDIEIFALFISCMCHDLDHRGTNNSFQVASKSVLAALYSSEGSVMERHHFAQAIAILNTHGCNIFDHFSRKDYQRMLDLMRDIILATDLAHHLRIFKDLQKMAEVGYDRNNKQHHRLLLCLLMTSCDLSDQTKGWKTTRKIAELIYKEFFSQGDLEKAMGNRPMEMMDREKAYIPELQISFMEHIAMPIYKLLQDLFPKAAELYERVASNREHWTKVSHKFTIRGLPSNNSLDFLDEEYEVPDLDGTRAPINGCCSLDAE

Row | Ki [1] [nM] | Ki [2] [nM] | SMILES
1 | 41.5 | 17.1 | COc1cc(C(F)(F)F)ccc1[C@@H](C)n1cc(-c2cc(=O)[nH]c(C)n2)cn1 (single isomer, unassigned) [Example 2]
2 |  | 40.3 | Cc1nc(-n2cc([C@H](C)c3ccc(C(F)(F)F)cc3)cn2)cc(=O)[nH]1 (single isomer, unassigned) [Example 3]
3 | 18.2 | 14.4 | Cc1nc(-n2cc([C@H](C)c3ccc(C(F)(F)F)cc3)cn2)cc(=O)[nH]1 (single isomer, unassigned) [Example 4]
4 |  | 174 | Cc1nc(-n2ccc([C@H](C)c3ccc(C(F)(F)F)cc3)n2)cc(=O)[nH]1 (single isomer, unassigned) [Example 5]
5 |  | 241 | Cc1nc(-n2ccc([C@H](C)c3ccc(C(F)(F)F)cc3)n2)cc(=O)[nH]1 (single isomer, unassigned) [Example 6]
6 |  | 11.7 | Cc1nc(-n2cc([C@](C)(O)c3ccc(C(F)(F)F)cc3F)cn2)cc(=O)[nH]1 (single isomer, unassigned) [Example 15]
7 |  | 47.1 | Cc1nc(-n2cc([C@](C)(O)c3ccc(C(F)(F)F)cc3F)cn2)cc(=O)[nH]1 (single isomer, unassigned) [Example 16]
8 |  | 85 | Cc1nc(-n2cc([C@H](CO)c3ccc(C(F)(F)F)cc3F)cn2)cc(=O)[nH]1 (single isomer, unassigned) [Example 19]
9 | 32.3 | 16.8 | Cc1nc(-n2cc([C@H](CO)c3ccc(C(F)(F)F)cc3F)cn2)cc(=O)[nH]1 (single isomer, unassigned) [Example 20]
10 |  | 199 | Cc1nc(-n2cc([C@]3(c4ccc(C(F)(F)F)cc4)CCCO3)cn2)cc(=O)[nH]1 (single isomer, unassigned) [Example 21]
11 |  | 31.5 | Cc1nc(-n2cc([C@]3(c4ccc(C(F)(F)F)cc4)CCCO3)cn2)cc(=O)[nH]1 (single isomer, unassigned) [Example 22]
12 |  | 19.4 | Cc1nc(-c2cc([C@H](C)c3ccc(C(F)(F)F)cc3)[nH]n2)cc(=O)[nH]1 (single isomer, unassigned) [Example 23]
13 |  | 81 | Cc1nc(-c2cc([C@H](C)c3ccc(C(F)(F)F)cc3)[nH]n2)cc(=O)[nH]1 (single isomer, unassigned) [Example 24]
14 |  | 66.6 | Cc1nc(-n2cc(C3(C)OCc4cc(C(F)(F)F)ccc43)cn2)cc(=O)[nH]1 (single isomer, unassigned) [Example 27]
15 |  | 72 | Cc1nc(-n2cc(C3(C)OCc4cc(C(F)(F)F)ccc43)cn2)cc(=O)[nH]1 (single isomer, unassigned) [Example 28]
16 | 12.3 | 4.9 | Cc1nc(-n2cc(C(C)c3ccc(C(F)(F)F)cc3F)cn2)cc(=O)[nH]1 (single isomer, unassigned) [Example 52, (R)- or (S)-6-(4-(1-(2-fluoro-4-(trifluoromethyl)phenyl)ethyl)-1H-pyrazol-1-yl)-2-methylpyrimidin-4(3H)-one]
17 |  | 33.2 | Cc1nc(-n2cc(C(C)c3ccc(C(F)(F)F)cc3F)cn2)cc(=O)[nH]1 (single isomer, unassigned) [Example 53, (S)- or (R)-6-(4-(1-(2-fluoro-4-(trifluoromethyl)phenyl)ethyl)-1H-pyrazol-1-yl)-2-methylpyrimidin-4(3H)-one]
18 | 16.4 | 6.8 | Cc1nc(-c2cnn(C(C)c3ccc(C(F)(F)F)cc3C)c2)cc(=O)[nH]1 (single isomer, unassigned) [Example 57, (S)- or (R)-2-methyl-6-(1-(1-(2-methyl-4-(trifluoromethyl)phenyl)ethyl)-1H-pyrazol-4-yl)pyrimidin-4(3H)-one]
19 | 3.7 | 1.1 | COc1ccc(Cc2nc(-c3cnn(C(C)c4ccc(C(F)(F)F)cc4)c3)cc(=O)[nH]2)cc1OC (single isomer, unassigned) [Example 60, (R)- or (S)-2-(3,4-dimethoxybenzyl)-6-(1-(1-4-(trifluoromethyl)phenyl)ethyl)-1H-pyrazol-4-yl)pyrimidin-4(3H)-one]
